# Test results taken from the supplement of paper PMC10307832.
# What was measured:
# Assay in all cases: relative viability (nuclei count vs DMSO), 5 days (fraction); higher = more cells survive
# YM155 + Tozasertib = compound: COCC[n+]1c2c(n(Cc3cnccn3)c1C)C(=O)c1ccccc1C2=O [YM155] + Cc1cc(Nc2cc(N3CCN(C)CC3)nc(Sc3ccc(NC(=O)C4CC4)cc3)n2)n[nH]1 [Tozasertib] (partner 0.1 µM)
# In short: (§1)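 The day after seeding in 1536-well plates, lung cancer cell lines were treated by pin tool with a single drug, or with a fixed anchor-drug dose together with five library-drug doses (not always all listed) in √10 steps. After 5 days, a combined fix-and-stain solution (final 0.05% Triton X-100, 1% formaldehyde, 1 ug/ml Hoechst) was added. Nuclei counted on 4× images gave relative viability as treated counts over vehicle counts, reported as the median of duplicate plates.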
# Quizartinib + Foretinib = compound: CC(C)(C)c1cc(NC(=O)Nc2ccc(-c3cn4c(n3)sc3cc(OCCN5CCOCC5)ccc34)cc2)no1 [Quizartinib] + COc1cc2c(Oc3ccc(NC(=O)C4(C(=O)Nc5ccc(F)cc5)CC4)cc3F)ccnc2cc1OCCCN1CCOCC1 [Foretinib] (partner 0.25 µM)
# In short: as §1
# Quizartinib + Pictilisib = compound: CC(C)(C)c1cc(NC(=O)Nc2ccc(-c3cn4c(n3)sc3cc(OCCN5CCOCC5)ccc34)cc2)no1 [Quizartinib] + CS(=O)(=O)N1CCN(Cc2cc3nc(-c4cccc5[nH]ncc45)nc(N4CCOCC4)c3s2)CC1 [Pictilisib] (partner 1 µM)
# In short: as §1
# YM155 + Olaparib = compound: COCC[n+]1c2c(n(Cc3cnccn3)c1C)C(=O)c1ccccc1C2=O [YM155] + O=C(c1cc(Cc2n[nH]c(=O)c3ccccc23)ccc1F)N1CCN(C(=O)C2CC2)CC1 [Olaparib] (partner 8 µM)
# In short: as §1
Cell Line,relative viability (YM155 + Tozasertib; first compound 0.002 µM),relative viability (YM155 + Tozasertib; first compound 0.006325 µM),relative viability (YM155 + Tozasertib; first compound 0.02 µM),relative viability (YM155 + Tozasertib; first compound 0.06325 µM),relative viability (Quizartinib + Foretinib; first compound 0.001 µM),relative viability (Quizartinib + Foretinib; first compound 0.003162 µM),relative viability (Quizartinib + Foretinib; first compound 0.01 µM),relative viability (Quizartinib + Foretinib; first compound 0.03162 µM),relative viability (Quizartinib + Foretinib; first compound 0.1 µM),relative viability (Quizartinib + Pictilisib; first compound 0.001 µM),relative viability (Quizartinib + Pictilisib; first compound 0.003162 µM),relative viability (Quizartinib + Pictilisib; first compound 0.01 µM),relative viability (Quizartinib + Pictilisib; first compound 0.03162 µM),relative viability (Quizartinib + Pictilisib; first compound 0.1 µM),relative viability (YM155 + Olaparib; first compound 0.002 µM),relative viability (YM155 + Olaparib; first compound 0.006325 µM),relative viability (YM155 + Olaparib; first compound 0.02 µM),relative viability (YM155 + Olaparib; first compound 0.06325 µM)
201T,0.916,0.961,0.955,0.974,1.07,0.998,1.09,0.942,1.01,0.668,0.678,0.669,0.68,0.695,0.813,0.845,0.826,0.874
A549,–,–,–,–,0.949,0.975,1.08,0.818,1.05,0.457,0.441,0.598,0.211,0.614,0.232,0.313,0.376,0.324
A-427,0.238,0.191,0.243,0.177,–,0.988,0.97,1.04,0.957,0.702,0.709,0.708,0.68,0.668,0.735,0.556,0.714,0.294
ABC-1,0.163,0.164,0.137,0.151,0.64,0.993,1.1,0.929,0.846,0.502,0.683,0.648,0.626,0.769,–,0.51,0.28,0.261
BEN,0.565,0.518,0.587,0.581,0.672,0.772,0.648,0.424,0.672,0.499,0.613,0.55,0.496,0.543,0.994,1.06,1.11,1.08
CAL-12T,0.311,0.336,0.376,0.149,0.781,1.1,1.14,0.935,1.22,0.47,0.536,0.308,0.398,0.547,0.782,0.735,0.625,0.331
COR-L23,0.201,0.175,0.133,0.126,0.979,0.856,1.06,0.973,1.02,0.535,0.758,0.698,0.589,0.763,0.322,0.298,0.187,0.147
COR-L 105,0.345,0.352,0.316,0.327,0.775,0.986,1.03,1,0.964,0.397,0.49,0.401,0.365,0.371,0.584,0.715,0.72,0.538
Calu-6,–,–,–,–,0.74,0.779,0.972,0.88,0.899,0.877,0.867,0.988,0.607,0.858,0.544,0.586,0.294,0.129
ChaGo-K-1,0.22,0.208,0.24,0.236,0.974,0.911,0.959,0.866,0.949,0.49,0.905,0.669,–,1.01,0.364,0.38,0.43,0.385
EBC-1,–,–,–,–,0.0847,0.105,0.0907,0.133,0.121,0.423,0.285,0.406,0.37,0.452,0.819,0.743,0.799,0.622
EKVX,0.401,0.411,0.448,0.379,0.201,0.739,0.749,0.852,0.833,0.464,0.478,0.471,0.407,0.476,0.912,0.875,0.854,0.401
EMC-BAC-2,0.265,0.256,0.273,0.275,0.938,1.02,1.14,–,1.01,0.561,0.562,0.54,0.511,0.592,0.444,0.44,0.392,0.301
EPLC-272H,0.349,0.198,0.449,0.223,0.535,0.685,0.75,0.682,0.669,0.314,0.391,0.405,0.323,0.398,0.825,0.891,0.722,0.811
H3255,0.68,0.59,0.616,0.351,0.874,0.84,1.14,1.07,0.763,0.486,0.404,0.507,0.471,0.47,0.577,0.581,0.578,0.508
HARA,0.0954,0.122,0.13,0.121,–,0.832,0.952,0.942,0.913,0.345,0.372,0.305,0.3,0.477,–,0.815,0.76,0.935
HCC-15,0.4,0.369,0.472,0.251,–,0.978,0.979,–,0.952,0.433,0.788,0.755,0.607,0.707,0.668,0.763,0.696,0.666

Cell Line,relative viability (YM155 + Tozasertib; first compound 0.002 µM),relative viability (YM155 + Tozasertib; first compound 0.006325 µM),relative viability (YM155 + Tozasertib; first compound 0.02 µM),relative viability (YM155 + Tozasertib; first compound 0.06325 µM),relative viability (Quizartinib + Foretinib; first compound 0.001 µM),relative viability (Quizartinib + Foretinib; first compound 0.003162 µM),relative viability (Quizartinib + Foretinib; first compound 0.01 µM),relative viability (Quizartinib + Foretinib; first compound 0.03162 µM),relative viability (Quizartinib + Foretinib; first compound 0.1 µM),relative viability (Quizartinib + Pictilisib; first compound 0.001 µM),relative viability (Quizartinib + Pictilisib; first compound 0.003162 µM),relative viability (Quizartinib + Pictilisib; first compound 0.01 µM),relative viability (Quizartinib + Pictilisib; first compound 0.03162 µM),relative viability (Quizartinib + Pictilisib; first compound 0.1 µM),relative viability (YM155 + Olaparib; first compound 0.002 µM),relative viability (YM155 + Olaparib; first compound 0.006325 µM),relative viability (YM155 + Olaparib; first compound 0.02 µM),relative viability (YM155 + Olaparib; first compound 0.06325 µM)
HCC-44,1.01,1.01,0.888,0.273,–,–,–,–,–,0.669,0.516,0.56,0.626,0.555,0.969,1.03,0.992,1.04
HCC-78,0.442,0.454,0.52,0.498,0.53,0.57,0.573,0.513,0.558,0.21,0.185,0.206,0.0784,0.216,0.882,0.865,0.807,1
HCC-366,0.142,0.136,0.135,0.113,0.884,0.921,0.992,0.914,0.946,–,0.138,0.103,0.137,0.138,0.368,0.329,0.375,0.275
HCC-827,0.421,0.416,0.448,0.475,1.02,0.922,1.07,1.06,1.07,0.93,1.01,1.14,0.983,0.908,0.708,0.649,0.654,0.702
HOP-62,0.384,0.383,0.391,0.354,0.907,1.09,1.22,1.07,1.09,0.377,0.7,0.692,0.831,0.835,0.668,0.35,0.419,0.29
IA-LM,–,–,–,–,1.05,1.01,1.17,1.14,1.02,0.356,0.299,0.397,0.231,0.342,0.836,0.891,0.879,0.642
LC-2-ad,0.469,0.425,0.438,0.299,0.883,0.857,0.977,–,0.904,0.398,0.516,0.351,0.323,0.276,0.718,0.685,0.695,0.617
LCLC-97TM1,0.197,0.202,0.227,0.22,0.889,0.802,0.906,0.953,0.971,–,0.144,0.223,0.148,0.218,–,0.321,0.311,0.376
LCLC-103H,0.569,0.454,0.464,0.487,0.786,0.7,0.8,0.788,0.995,0.535,0.733,0.591,0.547,0.546,0.738,0.845,0.77,0.801
NCI-H522,0.522,0.557,0.599,0.582,–,–,–,–,–,–,–,–,–,–,0.727,0.646,0.594,0.612
NCI-H1299,–,–,–,–,1.06,1.05,1.14,1.05,1.12,0.835,0.735,0.797,0.726,0.881,1,0.998,0.971,0.875
NCI-H1563,–,–,–,–,0.975,0.898,0.884,0.631,0.881,0.719,0.68,0.649,–,0.626,–,–,–,–
NCI-H1623,0.434,0.461,0.431,0.425,0.694,0.884,0.831,0.844,0.859,–,–,–,–,–,–,–,–,–
NCI-H1703,–,–,–,–,0.514,0.35,0.371,0.406,0.282,0.3,0.183,0.216,0.154,0.24,0.499,0.403,0.346,0.387
NCI-H1792,–,–,–,–,–,–,–,–,–,0.317,0.247,0.281,0.235,0.385,0.382,0.253,0.502,0.454
NCI-H2342,0.477,0.566,0.541,0.479,0.965,0.938,1.11,1,0.988,–,–,–,–,–,0.356,0.386,0.473,0.445
SW 900,0.816,0.553,0.588,0.45,0.802,0.85,–,0.882,0.836,–,–,–,–,–,–,0.788,0.848,0.808
